Values quoted from earlier work as cited in PMC7247160, “Inhibitors of DNA Glycosylases as Prospective Drugs” (International Journal of Molecular Sciences, 2020).
pIC50, pKd, pKi: −log10 of the molar value. Read-outs that look alike come from different tables or passages of the source.

Tests used:
[1] = test system: Fpg; parameters: method as in PMID 25143530; conditions: Lactococcus lactis, read-out: I50
[2] = test system: Fpg; conditions: E. coli
[3] = test system: Fpg; conditions: for Fpg inhibition (in words): free damaged base analogs
[4] = test system: UNG; parameters: method as in PMID 23400284; conditions: species not specified, read-out: I50
[5] = test system: UNG
[6] = test system: NEIL1; conditions: NEIL1, human; read-out: I50
[7] = test system: UNG; conditions: for pIC50: UNG, human, read-out: I50
[8] = test system: OGG1; conditions: OGG1, human; read-out: I50
[9] = test system: UNG; remark: listed apart in the source
[10] = test system: MTH1; conditions: MTH1, human; read-out: I50
[11] = test system: MPG; parameters: method as in PMID 25650313; conditions: human, read-out: I50
[12] = biological target: MutY; conditions: read-out: Kd or Ki directly measured
[13] = test system: NTHL1; parameters: method as in PMID 23138988; conditions: NTHL1, human; read-out: I50
[14] = test system: NEIL2; parameters: method as in PMID 23138988; conditions: NEIL2, human; read-out: I50
[15] = test system: OGG1; parameters: method as in PMID 30442810; conditions: OGG1, mouse; read-out: I50
[16] = test system: OGG1; parameters: method as in PMID 30442810; conditions: mouse model
[17] = test system: D4/A20 complex; conditions: UNG (D4), vaccinia virus; read-out: IC50 for DNA polymerase activity in the presence of the D4/A20 complex
[18] = test system: Nei2; parameters: method as in PMID 28955788; conditions: Nei2, Mycobacterium tuberculosis
[19] = read-out: Kd or Ki directly measured

Q: With 2-thioxanthine as the molecule, how does the pIC50 [1] read?
A: 4.00

Q: And the pIC50 ([2]; read-out: I50)?
A: 4.77

Q: What about the pIC50 ([3]; oxidizes zinc finger cysteines, not a true inhibitor, read-out: IC50, ability to suppress Fpg activity) of the same molecule?
A: 4.00 to 5.00

Q: With gentamicin as the molecule, how does the pIC50 [4] read?
A: 2.82

Q: And the pIC50 ([5]; UNG, E. coli, read-out: I50)?
A: 3.38

Q: Which “Fpg inhibition (in words)” value [3] does the source give for `Nc1cc(N)c(N=O)c(N)n1` [5-nitroso-2,4,6-triaminopyridine] here?
A: weakly inhibited

Q: With `Cc1cc(/C=C/C#N)cc(C)c1Nc1nc(Nc2ccc3c(c2)OCO3)c2nc[nH]c2n1` [C00028 R = C00032] as the molecule, how does the pIC50 [6] read?
A: 5.00

Q: With `O=c1cc(/C=N/OCCCO/N=C/c2cc(O)c(O)cc2Cl)[nH]c(=O)[nH]1` [C00002 R = Cl] as the molecule, how does the pIC50 ([7]; bipartite inhibitors) read?
A: 4.80

Q: With `O=c1cc(/C=N/OCCCO/N=C/c2cc(O)c(O)cc2F)[nH]c(=O)[nH]1` [C00002 R = F] as the molecule, how does the pIC50 ([7]; bipartite inhibitors) read?
A: 5.57

Q: With `O=C(O)c1cccc(C=NOCCON=Cc2cc(=O)[nH]c(=O)[nH]2)c1` [C00003 R1 = C00004 R2 = COOH, R3 = H] as the molecule, how does the pIC50 ([7]; bipartite inhibitors) read?
A: 4.40

Q: With `O=C(NN=C1CCCCC1)c1cc2ccccc2cc1O` [C00022] as the molecule, how does the pIC50 [8] read?
A: 6.47

Q: With `N#C[C@]1(n2ccc(=O)[nH]c2=O)C[C@H](O)[C@@H](COP(=O)(O)OP(=O)(O)OP(=O)(O)O)O1` [1′-cyano-2′-deoxyuridine triphosphate] as the molecule, how does the Ki ([5]; E. coli Ung, nucleotide incorporated into DNA) read?
A: nanomolar

Q: And the Ki ([7]; human UNG, nucleotide incorporated into DNA)?
A: nanomolar

Q: With `O=C(O)c1ccc(C=NOCCON=Cc2cc(=O)[nH]c(=O)[nH]2)cc1` [C00003 R1 = C00008 R2 = H, R3 = COOH] as the molecule, how does the pIC50 ([7]; bipartite inhibitors) read?
A: 5.22

Q: What does the source list for `CCCCCCCCc1ccc(Nc2cc(=O)[nH]c(=O)[nH]2)cc1` [C00001 R1 = n-octyl R2 = H, 6-(p-n-octylanilino)uracil]?
A: pIC50 ([9]; UNG, HSV1, read-out: I50): 5.10; pIC50 ([9]; herpes simplex type 1 UNG, read-out: IC50 for the viral enzyme): ~5.10; pIC50 [7]: < 3.52

Q: With `O=c1cc(/C=N/OCCCO/N=C/c2cc(O)c(O)cc2Br)[nH]c(=O)[nH]1` [C00002 R = Br] as the molecule, how does the pIC50 ([7]; bipartite inhibitors) read?
A: 4.40

Q: With `O=c1cc(/C=N/OCC(CO/N=C/c2ccc(O)c(O)c2)CO/N=C/c2ccc(O)c(O)c2)[nH]c(=O)[nH]1` [C00009 R1 = R2 = 3,4-dihydroxyphenyl] as the molecule, how does the pIC50 ([7]; triskelion inhibitors) read?
A: 5.80

Q: Which results are given for `Cc1cnc(N)nc1CCCNC(=O)c1cccc(-c2ccc(S(=O)(=O)Nc3ccc4c(c3)N(C(=O)C3CC3)CCC4)cc2)c1` [SU0383]?
A: pIC50 [10]: 7.47; pIC50 [8]: 6.31

Q: With `O=c1c(O)c(-c2ccc(O)cc2O)oc2cc(O)cc(O)c12` [Morin] as the molecule, how does the pIC50 [11] read?
A: 5.59

Q: With `O=c1cc(/C=N/OCCCO/N=C/c2cc(O)c(O)cc2[N+](=O)[O-])[nH]c(=O)[nH]1` [C00002 R = NO2] as the molecule, how does the pIC50 ([7]; bipartite inhibitors) read?
A: 4.40

Q: With `O=c1cc(/C=N/OCCCO/N=C/c2cc(O)c(O)cc2O)[nH]c(=O)[nH]1` [C00002 R = OH] as the molecule, how does the pIC50 ([7]; bipartite inhibitors) read?
A: 6.59

Q: For `CN(C=O)c1c(N)nc(N)[nH]c1=O` [2,6-diamino-4-oxo-5-(N-methylformamido)pyrimidine], which “Fpg inhibition (in words)” value [3] is on record?
A: weakly inhibited

Q: For `Nc1cc(=O)[nH]c(N)c1N=O` [5-nitroso-4,6-diamino-2-oxopyridine], which “Fpg inhibition (in words)” value [3] is on record?
A: weakly inhibited

Q: With `Cc1ccc(C(=O)Nc2ccc(S(=O)(=O)O)c3cc(S(=O)(=O)O)cc(S(=O)(=O)O)c23)cc1NC(=O)c1cccc(NC(=O)Nc2cccc(C(=O)Nc3cc(C(=O)Nc4ccc(S(=O)(=O)O)c5cc(S(=O)(=O)O)cc(S(=O)(=O)O)c45)ccc3C)c2)c1` [suramin] as the molecule, how does the pKd [12] read?
A: 4.80

Q: With `Cc1cc(/C=C/C#N)cc(C)c1Nc1nc(Nc2ccc3scnc3c2)c2nc[nH]c2n1` [C00028 R = C00029] as the molecule, how does the pIC50 [6] read?
A: 5.40

Q: With `O=C(O)c1cccc(C=NOCCCNCc2cc(=O)[nH]c(=O)[nH]2)c1` [C00003 R1 = C00005 R2 = COOH, R3 = H] as the molecule, how does the pIC50 ([7]; bipartite inhibitors) read?
A: 5.80

Q: With `O=C(O)/C=C/C(=O)CC(=O)CC(=O)O` [Fumarylacetoacetate] as the molecule, how does the pIC50 [13] read?
A: 6.00

Q: What about the pIC50 [6] of the same molecule?
A: 8.22

Q: And the pIC50 [8]?
A: 6.00

Q: What about the pIC50 [14] of the same molecule?
A: 7.49

Q: With `O=C(Nc1ccc(I)cc1)N1CCC(n2c(=O)[nH]c3c(Br)cccc32)CC1` [TH5487] as the molecule, how does the pIC50 [15] read?
A: 6.47

Q: And the “Effect on inflammatory response” value [16]?
A: downregulates the inflammatory response

Q: With `Cc1cc(/C=C/C#N)cc(C)c1Nc1nc(Nc2ccc3c(c2)CCC3)c2nc[nH]c2n1` [C00028 R = C00031] as the molecule, how does the pIC50 [6] read?
A: 5.05

Q: With `NC(=O)c1cccc(-c2ccc(S(=O)(=O)Nc3ccc4c(c3)N(C(=O)C3CC3)CCC4)cc2)c1` [C00025] as the molecule, how does the pIC50 [8] read?
A: 7.23

Q: With `Oc1ccc(NCc2ccccc2OCc2ccccc2)cc1` [C00012] as the molecule, how does the pIC50 [17] read?
A: 5.29

Q: With `O=C(O)c1cccc(CNCCCCNCc2cc(=O)[nH]c(=O)[nH]2)c1` [C00003 R1 = C00007 R2 = COOH, R3 = H] as the molecule, how does the pIC50 ([7]; bipartite inhibitors) read?
A: 3.50

Q: With `Cc1nc2ccc(Nc3nc(Nc4c(C)cc(/C=C/C#N)cc4C)nc4[nH]cnc34)cc2s1` [C00028 R = C00030] as the molecule, how does the pIC50 [6] read?
A: 5.10

Q: With `NNC(=O)c1sc2cccc(Cl)c2c1Cl` [C00018] as the molecule, how does the pIC50 [8] read?
A: 6.66

Q: With `O=C(O)c1cccc(CNCCCON=Cc2cc(=O)[nH]c(=O)[nH]2)c1` [C00003 R1 = C00006 R2 = COOH, R3 = H] as the molecule, how does the pIC50 ([7]; bipartite inhibitors) read?
A: 4.00

Q: With `O=C(O)c1cccc(/C=N/OCC(CO/N=C/c2cccc(C(=O)O)c2)CO/N=C/c2cc(=O)[nH]c(=O)[nH]2)c1` [C00009 R1 = R2 = 3-carboxyphenyl] as the molecule, how does the pIC50 ([7]; triskelion inhibitors) read?
A: 5.77

Q: With `O=c1cc(/C=N/OCC(CO/N=C/c2ccc(O)c(O)c2)CO/N=C/c2cc(=O)[nH]c(=O)[nH]2)[nH]c(=O)[nH]1` as the molecule, how does the pIC50 ([7]; triskelion inhibitors) read?
A: 6.05

Q: With `Nc1c(S(=O)(=O)O)cc(Nc2ccc(Nc3nc(Cl)nc(Nc4ccccc4S(=O)(=O)O)n3)c(S(=O)(=O)O)c2)c2c1C(=O)c1ccccc1C2=O` [Cibacron Blue F3GA] as the molecule, how does the pKi [2, 19] read?
A: 8.30

Q: With `O=c1cc(/C=N/OCCCO/N=C/c2ccc(O)c(O)c2)[nH]c(=O)[nH]1` [C00002 R = H] as the molecule, how does the pIC50 ([7]; bipartite inhibitors) read?
A: 5.96

Q: With `CCCCCc1cc(O)cc2c1Oc1cc(O)cc(C(=O)CCCC)c1C(=O)O2` [norlobaric acid] as the molecule, how does the pIC50 ([18]; read-out: I50) read?
A: 4.38

Q: And the pKi [18, 19]?
A: 7.13

Q: With `CCn1cnc2c(Nc3cccc(C)c3)nc(N[C@@H]3CCCC[C@@H]3N)nc21` [C00027] as the molecule, how does the pIC50 [6] read?
A: 4.60

Q: With `O=C(O)c1cccc(/C=N/OCC(CO/N=C/c2cc(=O)[nH]c(=O)[nH]2)CO/N=C/c2cc(=O)[nH]c(=O)[nH]2)c1` as the molecule, how does the pIC50 ([7]; triskelion inhibitors) read?
A: 6.05
